Assay results taken from US20250382269A1 (CFD Research Corporation, priority 2019, published 2025).

Columns and labels:
[1] = test system: HepaRG cells; test: Cytotoxicity MTT assay in HepaRG cells; format: cell-based, human; settings: 48 h
Experimental: (§1) Additionally, the antimicrobial compounds were analyzed for cytotoxicity. […] We utilized the standard MTT assay (Promega CellTiter 96) and GraphPad Prism 7 software to determine EC50 values for each analogue. Briefly, 20,000 HepG2 cells in 200 μl of the ATCC recommended media were seeded in each well of a 96-well plate with a moisture barrier created in the outermost wells. The cells were allowed to attach overnight at 37° C., and then observed under phase contrast microscopy for proper morphological characteristics. If cells appeared healthy and attached, test compounds were added in 7 concentrations from […] (n=3) from freshly prepared DMSO stock plates. […] Once incubations were complete, the spectrophotometric absorbance of the samples was measured at a wavelength of 595 nm. […] For the HepaRG assay, NoSpin HepaRG™ cells (Lonza, cat #NSHPRG) were thawed and plated with 20,000 cells per well. They were allowed to attach for 4 h (optimal DME profile per Lonza's testing) before dosing following the identical protocol as above.

[2] = test system: B. subtilis / cytotoxicity EC50; test: Selectivity index (SI) using B. subtilis MICs
Experimental: as §1

[3] = test system: Candida glabrata; test: MIC/MFC against Candida glabrata strains; format: cell-based; settings: Nakaseomyces glabratus; #584
[4] = test system: S. aureus cell wall synthesis; test: Macromolecular synthesis assay (glucosamine incorporation into cell wall); format: cell-based; settings: dose-response, FIG. 2A-2B
[5] = test system: branched chain amino acid synthesis pathway (ILVB); test: RNA sequencing / transcriptomic and metabolic mechanism of action studies
[6] = MIC with and without 2-ketobutyrate (synergy); format: cell-based

Row | SMILES | SI (selectivity index) [2] | further results
1 | Oc1ccc(Sc2c[nH]c3ccccc23)cc1 [Compound 156I, 4-((1H-indol-3-yl)thio)phenol] | – | Cytotoxicity HepaRG EC50 [1]: >20 µg/mL
2 | Brc1ccc(Sc2c[nH]c3ccccc23)cc1 [Compound 156K, 3-((4-bromophenyl)thio)-1H-indole] | – | Cytotoxicity HepaRG EC50 [1]: 32 µg/mL
3 | COc1ccc2[nH]cc(Sc3ccc(Br)cc3)c2c1 [Compound 172E, 3-((4-bromophenyl)thio)-5-methoxy-1H-indole] | 14.9 | –
4 | Clc1c(Cl)c(Cl)c(Sc2c[nH]c3ccc(Br)cc23)c(Cl)c1Cl [Compound 174AD, 5-bromo-3-((perchlorophenyl)thio)-1H-indole] | – | MIC [3]: > 50 µg/mL
5 | Clc1ccc2[nH]cc(Sc3ccc(Br)cc3)c2c1 [Compound 174C, 3-((4-bromophenyl)thio)-5-chloro-1H-indole] | 16.3 | –
6 | Fc1ccc2[nH]cc(Sc3ccc(Br)cc3)c2c1 [Compound 174E, 3-((4-bromophenyl)thio)-5-fluoro-1H-indole] | 14.2 | –
7 | Brc1ccc2[nH]cc(Sc3ccccc3Br)c2c1 [Compound 174I, 5-bromo-3-((2-bromophenyl)thio)-1H-indole] | – | cell wall synthesis inhibition (glucosamine incorporation) [4]: substantial cell wall synthesis inhibition; mechanism of action from transcriptomic and metabolic studies [5]: branched chain amino acid biosynthesis inhibition
8 | Clc1ccc(Sc2c[nH]c3ccc(Br)cc23)cc1 [Compound 174J, 5-bromo-3-((4-chlorophenyl)thio)-1H-indole] | 16.2 | –
9 | Nc1ccccc1Sc1c[nH]c2ccc(Br)cc12 [Compound 174M, 2-((5-bromo-1H-indol-3-yl)thio)aniline] | – | MIC with 200 μg/mL 2-ketobutyrate ([6]; with 200 μg/mL 2-ketobutyrate): 0.781; MIC with 800 μg/mL 2-ketobutyrate ([6]; with 800 μg/mL 2-ketobutyrate): less than 0.39; mechanism of action from transcriptomic and metabolic studies [5]: branched chain amino acid biosynthesis inhibition; Cytotoxicity HepaRG EC50 [1]: 85 µg/mL
10 | Fc1ccc(Sc2c[nH]c3ccc(Br)cc23)cc1 [Compound 174P, 5-bromo-3-((4-fluorophenyl)thio)-1H-indole] | 24.6 | –
11 | Clc1ccc(Sc2c[nH]c3ccc(Br)cc23)c(Cl)c1 [Compound 174V, 5-bromo-3-((2,4-dichlorophenyl)thio)-1H-indole] | 19.8 | –
12 | Oc1ccccc1Sc1c[nH]c2ccc(C(F)(F)F)cc12 [Compound 177A, 2-((5-(trifluoromethyl)-1H-indol-3-yl)thio)phenol] | 61.8 | –
13 | Oc1ccc(Sc2c[nH]c3ccc(C(F)(F)F)cc23)cc1 [Compound 177B, 4-((5-(trifluoromethyl)-1H-indol-3-yl)thio)phenol] | 17.8 | –
14 | Nc1ccccc1Sc1c[nH]c2ccc(C(F)(F)F)cc12 [Compound 177C, 2-((5-(trifluoromethyl)-1H-indol-3-yl)thio)aniline] | 123.6 | –
15 | Fc1ccccc1Sc1c[nH]c2ccc(C(F)(F)F)cc12 [Compound 177D, 3-((2-fluorophenyl)thio)-5-(trifluoromethyl)-1H-indole] | 17.4 | –
16 | Fc1ccc2[nH]cc(Sc3ccccc3Br)c2c1 [Compound 177E, 3-((2-bromophenyl)thio)-5-fluoro-1H-indole] | 20.3 | –
17 | FC(F)(F)c1ccc2[nH]cc(Sc3ccccc3C(F)(F)F)c2c1 [Compound 177F, 5-(trifluoromethyl)-3-((2-(trifluoromethyl)phenyl)thio)-1H-indole] | 19.1 | –
18 | CCc1ccccc1Sc1c[nH]c2ccc(C(F)(F)F)cc12 [Compound 177G, 3-((2-ethylphenyl)thio)-5-(trifluoromethyl)-1H-indole] | 18.9 | –
19 | OCc1[nH]c2ccc(Br)cc2c1Sc1ccccc1Br [Compound 177H, (5-bromo-3-((2-bromophenyl)thio)-1H-indol-2-yl)methanol] | 20.4 | –
20 | CCc1ccccc1Sc1c(CO)[nH]c2ccc(C(F)(F)F)cc12 [Compound 177I, (3-((2-ethylphenyl)thio)-5-(trifluoromethyl)-1H-indol-2-yl)methanol] | 10.0 | –
21 | CN[C@H](CC(C)C)C(=O)N[C@H]1C(=O)N[C@@H](CC(N)=O)C(=O)N[C@H]2C(=O)N[C@H]3C(=O)N[C@H](C(=O)N[C@H](C(=O)O)c4cc(O)cc(O)c4-c4cc3ccc4O)[C@H](O)c3ccc(c(Cl)c3)Oc3cc2cc(c3O[C@@H]2O[C@H](CO)[C@@H](O)[C@H](O)[C@H]2O[C@H]2C[C@](C)(N)[C@H](O)[C@H](C)O2)Oc2ccc(cc2Cl)[C@H]1O [vancomycin, reference compound] | – | cell wall synthesis inhibition (glucosamine incorporation) [4]: increasingly inhibits glucosamine from incorporating into a cell wall
